# Laboratory results: ChEMBL document CHEMBL2016468, “Development of rationally designed DNA N6 adenine methyltransferase inhibitors” (Bioorg Med Chem Lett, 2012)
# Test: Inhibition of Yersinia pestis Dam using oligonucleotide 1 as substrate after 2000 to 3000 sec by micro plate reader based real-time break-light assay
row,SMILES,IC50
1,Nc1ncnc2c1ncn2[C@@H]1O[C@H](CNCC[C@H](N)C(=O)O)[C@@H](O)[C@H]1O,84 µM
2,Nc1ncnc2c1ncn2[C@@H]1O[C@H](CN(CC[C@H](N)C(=O)O)Cc2ccccn2)[C@@H](O)[C@H]1O,> 250 µM
3,Nc1ncnc2c1ncn2[C@@H]1O[C@H](CN(CCCc2ccccn2)CC[C@H](N)C(=O)O)[C@@H](O)[C@H]1O,> 250 µM
4,Nc1ncnc2c1ncn2[C@@H]1O[C@H](CN(CCc2c[nH]c3ccccc23)CC[C@H](N)C(=O)O)[C@@H](O)[C@H]1O,12.3 µM
5,Nc1ncnc2c1ncn2[C@@H]1O[C@H](CN(CCCc2c[nH]c3ccccc23)CC[C@H](N)C(=O)O)[C@@H](O)[C@H]1O,13.1 µM
6,Nc1ncnc2c1ncn2[C@@H]1O[C@H](CN(CCc2coc3ccccc23)CC[C@H](N)C(=O)O)[C@@H](O)[C@H]1O,39.2 µM
7,Nc1ncnc2c1ncn2[C@@H]1O[C@H](CN(CCc2csc3ccccc23)CC[C@H](N)C(=O)O)[C@@H](O)[C@H]1O,28.9 µM
8,Nc1ncnc2c1ncn2[C@@H]1O[C@H](CN(CCc2cccc3[nH]ccc23)CC[C@H](N)C(=O)O)[C@@H](O)[C@H]1O,31.3 µM
9,Nc1ncnc2c1ncn2[C@@H]1O[C@H](CSCC[C@H](N)C(=O)O)[C@@H](O)[C@H]1O [S-ADENOSYLHOMOCYSTEINE],11.9 µM
